Columns and labels:
H9 embryonic stem cells = assay: Immunofluorescence staining of DE markers +/- Wnt-3a (Example 27); assay type: cell-based, human; conditions: 20 ng/ml Wnt-3a; Day 5 DE cultures
Description: Day 5 DE cultures of H9 cells were stained according to Example 10 for SOX-17, HNF-3B, GATA-4, N-cadherin, and E-cadherin. All nuclei were counter stained with DAPI.

SA002 ES line = assay: Real-time PCR and FACS of DE markers, SA002 on […]; assay type: cell-based, human; conditions: SA002 P38; 20 ng/ml Wnt-3a with 100 ng/ml activin A
Description: Expression of CXCR4 is depicted in FIG. 45: a) AA treatment b) AA+Wnt-3a c) AA+GSK-3B inhibitor.

[1] = system: human embryonic stem cell line H9; assay: Real-time PCR of marker gene expression, H9 on MEF (Examples 2-7); assay type: cell-based
Experimental: Cells were harvested at the time points indicated in FIG. 3 and assayed by PCR for the expression of genes shown (FIGS. 3, 4 and 5).
After this time interval, the cells were then treated for six days with combinations of retinoic acid and FGF as outlined in Example 2, then the culture medium was removed and replaced with medium comprising DMEM/F12 with 2% FBS, containing the γ-secretase inhibitors L-685,458 at 10 μM for three days.
Cells were continuously cultured for another 3 to 5 days in basal medium with retinoic acid at 1 μM, alone or with bFGF. RNA samples were harvested from cells at various time points along this process to help evaluate the directed differentiation of the cells. Furthermore, culture medium and factors were regularly removed and replenished throughout the differentiation protocol.
RNA extraction, purification, and cDNA synthesis. RNA samples were purified by binding to a silica-gel membrane (Rneasy Mini Kit, Qiagen, CA) in the presence of an ethanol-containing, high-salt buffer followed by washing to remove contaminants. The RNA was further purified using a TURBO DNA-free kit (Ambion, INC), and high-quality RNA was then eluted in water. Yield and purity were assessed by A260 and A280 readings on a spectrophotometer. cDNA copies were made from purified RNA using an ABI (ABI, CA) high capacity cDNA archive kit.
(§1) Real-time PCR amplification and quantitative analysis.
(§2) Final data were expressed relative to a calibrator sample.

[2] = system: human embryonic stem cell line H1; assay: FACS analysis of protein expression following activin A treatment, H1; assay type: cell-based; conditions: 5-day AA treatment
Description: (§3) The level of expression of definitive endoderm markers was examined by PCR (FIG. 1), FACS (results summarized in Table II), and immunohistochemistry (FIG. 2).
CXCR4 positive cells were also highly positive for C-kit, EPCAM, CD99, and negative for CD9. The expression pattern for these markers was consistent among all three hES cell lines examined (Table IIB for H7 and Table IIC for H1). […] In parallel, almost 100% of the differentiated cells were […] (FIG. 2).
(§4) Adhered cells were removed from culture plates by five-minute incubation with TrypLE™ Express solution (Invitrogen, CA). Released cells were resuspended in human embryonic stem cell culture medium and recovered by centrifugation, followed by washing and resuspending the cells in a staining buffer consisting of 2% BSA, 0.05% sodium azide in PBS (Sigma, MO). As appropriate, the cells were Fc-receptor blocked for 15 minutes using a 0.1% γ-globulin (Sigma) solution. […] Controls included appropriate isotype matched antibodies, unstained cells, and cells stained only with secondary conjugated antibody. All incubations with antibodies were performed for 30 mins at 4° C. after which the cells were washed with the staining buffer. Samples that were stained with unconjugated primary antibodies were incubated for an additional 30 mins at 4° C. with secondary conjugated PE or -APC labeled antibodies. See Table I for a list of secondary antibodies used. Washed cells were pelleted and resuspended in the staining buffer, and the cell surface molecules were identified using a FACS Array (BD Biosciences) instrument, collecting at least 10,000 events.

H9P44 cells = assay: RT-PCR of definitive endoderm markers, growth factor combinations in low serum on MEFs (Example 22); assay type: cell-based, human; conditions: H9P44 on MEF; Day 3; normalized to Group 1 (control)
Experimental: as §1, §2
H9P44 cells were plated onto 6 well plates previously coated with mitomycin treated mouse embryonic fibroblasts (MEF). Cells were grown until 70 to 80% confluency in ES cell medium consisting of DMEM/F12 (Invitrogen/GIBCO) supplemented with 20% knockout serum replacement, 100 nM MEM nonessential amino acids, 0.5 mM beta-mercaptoethanol, 2 mM L-glutamine (all from Invitrogen/GIBCO) and 8 ng/ml human basic fibroblast growth factor (bFGF) (R&D Systems).
Growth factors were added to increasing concentration of FBS in a stepwise manner as indicated in the following regimen: • Day 0: 0% FBS in DMEM/F12 • Day 1: 0.5% FBS in DMEM/F12 • Day 2: 2% FBS in DMEM/F12. • Day 3: Cells were harvested for FACS analysis and RT-PCR.
All growth factors were purchased from R&D Systems, MN. A detailed description and concentration of growth factors for each treatment group is shown below.
For RT-PCR analysis, cells were analyzed for expression of selected panel of definitive endoderm markers.

[3] = system: human embryonic stem cell line H9; assay: FACS analysis of protein expression following activin A treatment, H9 on MEF; assay type: cell-based; conditions: for CD9 protein expression (FACS) / CXCR4 protein expression (FACS) / ECAM protein expression (FACS) / NCAM protein expression (FACS) / SSEA-3 protein expression (FACS): activin A 100 ng/ml
Experimental: as §3, §4

For Wnt-3a, the “expression of N-cadherin” value (H9 embryonic stem cells) was “enhanced expression”, the expression of e-cadherin (H9 embryonic stem cells) was “significant loss” and the “nuclei stained positive for SOX-17, HNF-3beta. and GATA-4” value (H9 embryonic stem cells) was “significantly larger number”. The “expression of DE markers” value (SA002 ES line) was “robust expression”.
In the case of “Activin A: a member of the TGFβ superfamily; R&D Systems; Group 2 = Activin A (100 ng/ml)”, the “increase of Nkx2.2 expression compared to samples without activin A” value ([1]; 50 ng/ml activin A with 50 ng/ml basic FGF and 1 μM Retinoic Acid) was “about 35 fold”, the Pdx1 gene expression ([1]; Activin A 100 ng/ml up to seven days, 0% to 2% serum) was “no Pdx1 gene expression was observed” and the “expression of Brachyury” value ([1]; H9, activin A 100 ng/ml) was “decreased”. The “expression of the neuronal marker Zic1” value ([1]; H9, activin A 100 ng/ml) was “no effect”, the “expression of the extraembryonic endoderm markers Sox7 and AFP” value ([1]; H9, activin A 100 ng/ml, one to seven days) was “time-dependent decrease” and the “anterior endoderm markers, Cerberus, Otx-1 and Hex genes” value ([1]; H9, activin A 100 ng/ml, three and five days) was “significant up regulation”. The “expression of CXCR4, GATA4, HNF-3beta, Mix11 and Sox-17 mRNA” value ([1]; H9 line, activin A 100 ng/ml, two, five and eight days) was “time-dependent increase”, the “expression of Ngn3 or Insulin” value ([1]; activin A alone or in combination with retinoic acid and FGFs) was “did not induce” and the “expression of Pdx1” value ([1]; activin A or retinoic acid alone) was “did not induce”. For the same substance, the “CXCR4+” value [2] was 92.78%, the “CXCR4+/C-kit+” value [2] was 92.90% and the “CXCR4+/CD9+” value [2] was 7.03%. For the same substance, the “CXCR4+/CD99+” value [2] was 88.78%, the “CXCR4+/EPCAM” value [2] was 87.99% and the CXCR4 relative expression (H9P44 cells) was 19.5. The Goosecoid relative expression (H9P44 cells) was 2.8, the HNF-3B relative expression (H9P44 cells) was 0.64 and the Oct-4 relative expression (H9P44 cells) was 1.1. The SOX-2 relative expression (H9P44 cells) was 0.91, the Sox17 relative expression (H9P44 cells) was 45 and the “CD9 protein expression (FACS)” value ([3]; 2-DAY) was 29.42%. The “CXCR4 protein expression (FACS)” value ([3]; 2-DAY) was 20.2%, the “ECAM protein expression (FACS)” value ([3]; 2-DAY) was 20.87% and the “NCAM protein expression (FACS)” value ([3]; 2-DAY) was 5.04%. For the same substance, the “SSEA-3 protein expression (FACS)” value ([3]; 2-DAY) was 92.14%, the “CD9 protein expression (FACS)” value ([3]; 5-DAY) was 7.27% and the “CXCR4 protein expression (FACS)” value ([3]; 5-DAY) was 55.26%. For the same substance, the “ECAM protein expression (FACS)” value ([3]; 5-DAY) was 14.17%, the “NCAM protein expression (FACS)” value ([3]; 5-DAY) was 21.1% and the “SSEA-3 protein expression (FACS)” value ([3]; 5-DAY) was 42.9%. For the same substance, the “CD9 protein expression (FACS)” value ([3]; 8-DAY) was 4.1%, the “CXCR4 protein expression (FACS)” value ([3]; 8-DAY) was 56.92% and the “ECAM protein expression (FACS)” value ([3]; 8-DAY) was 1.02%. The “NCAM protein expression (FACS)” value ([3]; 8-DAY) was 8.86%, the “SSEA-3 protein expression (FACS)” value ([3]; 8-DAY) was 22.05% and the “expression of E-cadherin and N-cadherin (FACS)” value ([3]; following activin A treatment) was “did not change”.

Source: US20100255580A1, “Differentiation of Human Embryonic Stem Cells” (LIFESCCAN, INC., priority 2007, published 2010)
